Results: patent US20240390293A1, “DERIVATIVES OF THE PROTECTIN 10S,17S-DIHDA (PDX) AND USE THEREOF AS ANTIVIRAL, ANTI-INFLAMMATORY, AND ANTI-DIABETIC AGENTS” (priority 2021, published 2024)
Like-named read-outs stand apart in the source and are kept apart here.

Experiments:
SARS-CoV-2 [1] = assay: Plaque Reduction Assay (PRA) of SARS-CoV-2 replication on VERO E6 cells; format: cell-based
SARS-CoV-2 [2] = assay: SARS-CoV-2 infected hamsters: viral titers and weight variation; format: in vivo, Golden Syrian hamsters
Method: Animal Studies. 5-6 Week-old Golden Syrian hamsters were infected with 4.5 log PFU of original SARS-CoV-2 strain. On days 1, 2 and 3, or 1 to 5 post-infection, the animals were treated intraperitoneally with either Remdesivir (15 mg/kg), analog RM-598-48 (50 mg/kg), Remdesivir (15 mg/kg)+analog RM-598-48 (50 mg/kg), analog RM-598-44 (50 mg/kg), or with vehicle only (FIG. 28). The hamsters were monitored daily over a period of 14 days for clinical symptoms and weight loss. On day 4 post-infection, nasal turbinates and lungs were harvested to assess viral replication. All animal studies were approved by the Animal Protection Committee of the Centre Hospitalier Universitaire de Québec according to the Canadian Council on Animal Care guidelines.
Viral titers. Viral titers were determined in cell culture to characterize the presence of live virus. Ten-fold dilutions of nasal turbinates and lung homogenates were performed in infection medium. After one week of infection, titers were determined and reported in TCID50 per gram of organ.

iNOS = assay: LPS-induced iNOS activity (nitrite production, Griess method) in J774 macrophages; format: cell-based, mice; details: for nitrite production in LPS-induced J774 mice macrophages: LPS 2.5 ng/ml, 18 h, dose-dependent; for IC50: Mus musculus
Method: J774A.1 macrophages are grown in DMEM, supplemented with 10% Bovine Growth Serum (BGS) and 1% penicillin-streptomycin (PS). The J774A.1 macrophages are subsequently stimulated with LPS 2.5 ng/ml in DMEM supplemented with 10% BGS and 1% PS for 16 h-18 h. […] After incubation, the level of inflammation is evaluated by measuring the nitrite content in the medium by using the Griess method and normalized by protein concentration.

[3] = system: interleukin-6 (IL-6) release; details: skeletal muscle cells; PDX at submicromolar concentrations; cited from earlier work
[4] = system: influenza A/Puerto Rico/8/34 (H1N1); format: cell-based; details: A549 cells, 24 hours
[5] = Severe acute respiratory syndrome coronavirus 2, Vero C1008, VERO E6 cells, plaque reduction assay, read-out: SARS-COV-2 Inhibition IC50
[6] = 50 mg/kg IP from day 1 until day 5 post-infection
[7] = LPS-stimulated J774 macrophages, nitrite by Griess method, read-out: Anti-inflammatory Activity on iNOS IC50
[8] = Severe acute respiratory syndrome coronavirus 2, Vero C1008, read-out: SARS-COV-2 Inhibition (%)

## CC/C=C\C[C@H](O)/C=C/C=C\C=C\[C@@H](O)CCOc1ccc(CC(=O)OC)cc1 [PDX-2]
SARS-CoV-2 [1]; [5]
  IC50: 33 µM
SARS-CoV-2 [2]; [6]
  weight loss (weight variation, % of initial weight): significantly limit weight loss
SARS-CoV-2 [2]; 50 mg/kg IP on days 1, 2 and 3 post-infection, significant at days 3, 9, 11, 12 and 14
  weight loss (weight variation, % of initial weight): significantly limit weight loss
SARS-CoV-2 [2]; 50 mg/kg IP on days 1, 2 and 3 post-infection, titers on day 4, vs untreated hamsters
  viral loads in nasal turbinates: significantly different from the untreated hamsters
iNOS
  nitrite production in LPS-induced J774 mice macrophages: reduced nitrite production
iNOS; [7]
  IC50: 64 µM

## CC/C=C\C[C@H](O)/C=C/C=C\C=C\[C@@H](O)CCOc1cccc(CC(=O)OC)c1 [PDX-22]
iNOS
  nitrite production in LPS-induced J774 mice macrophages: reduced nitrite production

## CC/C=C\C[C@H](O)/C=C/C=C\C=C\[C@@H](O)CCN1CCCCC1 [PDX-7]
iNOS
  nitrite production in LPS-induced J774 mice macrophages: reduced nitrite production

## CC/C=C\C[C@H](O)/C=C/C=C\C=C\[C@@H](O)CCOc1ccc2ccc(=O)oc2c1 [PDX-18]
iNOS
  nitrite production in LPS-induced J774 mice macrophages: reduced nitrite production

## CC/C=C\C[C@H](O)/C=C/C=C\C=C\[C@@H](O)CCOc1cccc(CC(=O)O)c1 [PDX-21]
iNOS
  nitrite production in LPS-induced J774 mice macrophages: reduced nitrite production

## CC/C=C\C[C@H](O)/C=C/C=C\C=C\[C@@H](O)C/C=C\C/C=C\CCC(=O)O [PDX, 10S, 17S-diHDA, reference compound]
SARS-CoV-2 [1]; Severe acute respiratory syndrome coronavirus 2, Vero C1008, 5 μM, VERO E6 cells, plaque reduction assay, read-out: SARS-COV-2 Inhibition (%)
  inhibition at 5 µM: 0%
SARS-CoV-2 [1]; Severe acute respiratory syndrome coronavirus 2, Vero C1008, 50 μM, VERO E6 cells, plaque reduction assay, read-out: SARS-COV-2 Inhibition (%)
  inhibition at 50 µM: 18%
[3]
  release of interleukin-6 (IL-6): induce the release
iNOS; [7]
  IC50: 96 µM

## CC/C=C\C[C@H](O)/C=C/C=C\C=C\[C@@H](O)CCOc1ccc(C)cc1 [PDX-1]
iNOS
  nitrite production in LPS-induced J774 mice macrophages: reduced nitrite production
iNOS; [7]
  IC50: 11 µM

## CC/C=C\C[C@H](O)/C=C/C=C\C=C\[C@@H](O)CCNCCCCCC [PDX-6]
SARS-CoV-2 [1]; [5]
  IC50: 29 µM
iNOS
  nitrite production in LPS-induced J774 mice macrophages: reduced nitrite production
iNOS; [7]
  IC50: 50 µM

## CC/C=C\C[C@H](O)/C=C/C=C\C=C\[C@@H](O)CCOc1ccncc1 [PDX-17]
iNOS
  nitrite production in LPS-induced J774 mice macrophages: reduced nitrite production

## CC/C=C\C[C@H](O)\C=C/C=C/C=C/[C@H](O)C/C=C\C/C=C\CCC(=O)O [PD1, protectin D1]
[4]; 50 μM
  decrease in the viral charge: 10%
[3]
  release of interleukin-6 (IL-6): ineffective

## CCC(CC)COC(=O)[C@H](C)N[P@](=O)(OC[C@H]1O[C@@](C#N)(c2ccc3c(N)ncnn23)[C@H](O)[C@@H]1O)Oc1ccccc1 [Remdesivir, reference compound]
SARS-CoV-2 [1]; Severe acute respiratory syndrome coronavirus 2, Vero C1008, read-out: SARS-COV-2 Inhibition IC50
  IC50: 3.9 µM

## CC/C=C\C[C@H](O)/C=C/C=C\C=C\[C@@H](O)CCOc1ccc(CC(=O)NC)cc1 [PDX-23]
iNOS
  nitrite production in LPS-induced J774 mice macrophages: reduced nitrite production

## CC/C=C\C[C@H](O)/C=C/C=C\C=C\[C@@H](O)CCNCCC [PDX-20]
iNOS
  nitrite production in LPS-induced J774 mice macrophages: reduced nitrite production

## CC/C=C\C[C@H](O)/C=C/C=C\C=C\[C@@H](O)CCOc1ccc(CC(N)=O)cc1 [PDX-24]
[4]; 50 μM
  decrease in the viral charge: 39%
iNOS
  nitrite production in LPS-induced J774 mice macrophages: reduced nitrite production

## CC/C=C\C[C@H](O)/C=C/C=C/C=C/[C@@H](O)CCN1CCCCC1 [PDX-10]
SARS-CoV-2 [1]; [5]
  IC50: 56 µM
iNOS
  nitrite production in LPS-induced J774 mice macrophages: reduced nitrite production
iNOS; [7]
  IC50: 32 µM

## CC/C=C\C[C@H](O)C#C/C=C\C#C[C@@H](O)CCO [PDX-Al-1]
SARS-CoV-2 [1]; [8]
  inhibition at 5 µM: 40%
  inhibition at 50 µM: 30%
SARS-CoV-2 [2]; [6]
  weight loss (weight variation, % of initial weight): tendency to limit weight loss, but not in a significant manner
iNOS
  nitrite production in LPS-induced J774 mice macrophages: reduced nitrite production
iNOS; J774, read-out: Anti-inflammatory Activity on iNOS IC50
  IC50: 18 µM

## O=c1c(O)c(-c2ccc(O)c(O)c2)oc2cc(O)cc(O)c12 [Quercetin, reference compound]
iNOS
  nitrite production in LPS-induced J774 mice macrophages: reduced nitrite production

## O=C1c2c(O)c(=O)ccn2N([C@@H]2c3ccccc3SCc3c2ccc(F)c3F)[C@@H]2COCCN12 [BXA, Baloxavir acid]
[4]; 5 μM
  decrease in the viral charge: 88%

## CC/C=C\C[C@H](O)/C=C/C=C\C=C\[C@@H](O)CCOc1ccc(C(=O)OC)cc1 [PDX-16]
iNOS
  nitrite production in LPS-induced J774 mice macrophages: reduced nitrite production

## CC/C=C\C[C@H](O)/C=C/C=C\C=C\[C@@H](O)CCOc1ccc(C(=O)O)cc1 [PDX-19]
iNOS
  nitrite production in LPS-induced J774 mice macrophages: reduced nitrite production
